According to patent US9932637B2, “Genetic polymorphisms associated with cardiovascular disorders and drug response, methods of detection and uses thereof” (CELERA CORPORATION, priority 2003, dated 2018):

Test system: patients with prior myocardial infarction (CARE study)
Assay: CARE: association of SNPs with pravastatin treatment in cardiovascular events prevention (logistic regression, odds ratio pravastatin vs placebo by genotype; Table 8)
Format: in vivo, human
Details: for Non-fatal MI (def & prob), n/total (%) / Fatal CHD/Definite Non-fatal MI, n/total (%) / Coronary Artery Bypass or Revascularization, n/total (%) / Hosp. for Unstable Angina, n/total (%) / Total Coronary Heart Disease Events, n/total (%) / Fatal/Non-fatal Atherosclerotic CV Disease, n/total (%) / Hosp. for Cardiovascular Disease, n/total (%) / Total Cardiovascular Disease Events, n/total (%) / Prava vs. Placebo Odds Ratio, 0 Rare Alleles / Prava vs. Placebo Odds Ratio, 1 Rare Alleles / Cardiovascular Mortality, n/total (%) / Fatal Atherosclerotic Cardiovascular Disease, n/total (%) / Fatal/Non-fatal MI (def & prob), n/total (%): All Patients; for Non-fatal MI (def & prob), n/total (%) / Fatal CHD/Definite Non-fatal MI, n/total (%) / Coronary Artery Bypass or Revascularization, n/total (%) / Hosp. for Unstable Angina, n/total (%) / Total Coronary Heart Disease Events, n/total (%) / Fatal/Non-fatal Atherosclerotic CV Disease, n/total (%) / Hosp. for Cardiovascular Disease, n/total (%) / Total Cardiovascular Disease Events, n/total (%) / Cardiovascular Mortality, n/total (%) / Fatal Atherosclerotic Cardiovascular Disease, n/total (%) / Fatal/Non-fatal MI (def & prob), n/total (%): Prava
Source text: In order to identify genetic markers associated with acute coronary events (e.g. MI, stroke, unstable angina, congestive heart failure, etc.) or response to statin treatment for the prevention of coronary events, samples from the Cholesterol and Recurrent Events (CARE) study (a randomized multicentral double-blinded trial on secondary prevention of acute coronary events with pravastatin) (Sacks et al., 1991, Am. J. Cardiol. 68: 1436-1446) were genotyped. A well-documented myocardial infarction (MI) was one of the enrollment criteria for entry into the CARE study. Patients were enrolled in the CARE trial from 80 participating study centers. […] Patients were randomized to receive either 40 mg of pravastatin once daily or a matching placebo. The primary endpoint of the trial was death from coronary heart disease and the median duration of follow-up was 5.0 years (range, 4.0 to 6.2 years). […] Secondary endpoints of other related cardiovascular or metabolic disease events, and changes in clinical variables were also recorded in pravastatin-treated and placebo groups. All individuals included in the study had signed a written informed consent form and the study protocol was approved by the respective Institutional Review Boards (IRBs).
For genotyping SNPs in CARE patient samples, DNA was extracted from blood samples using conventional DNA extraction methods such as the QIA-amp kit from Qiagen. Genotypes were obtained on an ABI PRISM® 7900HT Sequence Detection PCR system (Applied Biosystems, Foster City, Calif.) by kinetic allele-specific PCR, similar to the method described by Germer et al. (Germer S., Holland M. J., Higuchi R. 2000, Genome Res. 10: 258-266).
Statistical analysis for association of SNPs with pravastatin treatment in cardiovascular events prevention (Table 8) was carried out using an overall logistic regression model that included an intercept, a parameter for the effect of a genotype containing two rare alleles versus a genotype containing no rare alleles, a parameter for the effect of a genotype containing one rare allele versus a genotype containing no rare alleles, a parameter for the effect of use of pravastatin versus the use of placebo, and parameters for the interaction effects between SNP genotypes and pravastatin use. The test of the overall model is a chi-square test with two degrees of freedom for analyses containing all three genotypes, and one degree of freedom for analyses containing two genotypes.
Effect sizes were estimated through odds ratios (pravastatin group versus placebo) for carriers of each genotype (groups of 0, 1, and 2 minor allele carriers). The effect was considered to be significant if p-value for testing whether any of the interactions between SNP genotypes and pravastatin use were <0.05. […] Odds ratios less than one indicate that the specific SNP allele has a protective effect and odds ratios greater than one indicate that the specific SNP allele has an adverse effect.

[1] = CR1 hCV25598594, 2 Rare Alleles, n/total 0/0
[2] = CR1 hCV25598594, Coronary Artery Bypass or Revascularization
[3] = CR1 hCV25598594, Fatal CHD/Definite Non-fatal MI
[4] = CR1 hCV25598594, Fatal/Non-fatal Atherosclerotic CV Disease
[5] = CR1 hCV25598594, Hosp. for Cardiovascular Disease
[6] = CR1 hCV25598594, Hosp. for Unstable Angina
[7] = CR1 hCV25598594, Non-fatal MI (def & prob)
[8] = CR1 hCV25598594, Total Cardiovascular Disease Events
[9] = CR1 hCV25598594, Total Coronary Heart Disease Events
[10] = CXCL16 hCV8718197, 0 Rare Alleles, n/total 12/468

Structure (SMILES): CC[C@H](C)C(=O)O[C@H]1C[C@H](O)C=C2C=C[C@H](C)[C@H](CC[C@@H](O)C[C@@H](O)CC(=O)O)[C@H]21 [pravastatin]
- Nonfatal MI (def & prob), n/total (%) (COL11A1 hCV8400671, All Patients, 2 Rare Alleles, Prava arm): (4.1%)
- Non-fatal MI (def & prob), n/total (%) (CR1 hCV25598594, 0 Rare Alleles, n/total 132/1445): (9.1%)
- Fatal CHD/Definite Non-fatal MI, n/total (%) (CR1 hCV25598594, 0 Rare Alleles, n/total 139/1445): (9.6%)
- Coronary Artery Bypass or Revascularization, n/total (%) (CR1 hCV25598594, 0 Rare Alleles, n/total 212/1445): (14.7%)
- Hosp. for Unstable Angina, n/total (%) (CR1 hCV25598594, 0 Rare Alleles, n/total 223/1445): (15.4%)
- Total Coronary Heart Disease Events, n/total (%) (CR1 hCV25598594, 0 Rare Alleles, n/total 431/1445): (29.8%)
- Fatal/Non-fatal Atherosclerotic CV Disease, n/total (%) (CR1 hCV25598594, 0 Rare Alleles, n/total 491/1445): (34.0%)
- Hosp. for Cardiovascular Disease, n/total (%) (CR1 hCV25598594, 0 Rare Alleles, n/total 586/1445): (40.6%)
- Total Cardiovascular Disease Events, n/total (%) (CR1 hCV25598594, 0 Rare Alleles, n/total 603/1445): (41.7%)
- Fatal CHD/Definite Non-fatal MI, n/total (%) (CR1 hCV25598594, 1 Rare Allele, n/total 1/72): (1.4%)
- Non-fatal MI (def & prob), n/total (%) (CR1 hCV25598594, 1 Rare Allele, n/total 2/72): (2.8%)
- Coronary Artery Bypass or Revascularization, n/total (%) (CR1 hCV25598594, 1 Rare Allele, n/total 7/72): (9.7%)
- Hosp. for Unstable Angina, n/total (%) (CR1 hCV25598594, 1 Rare Allele, n/total 8/72): (11.1%)
- Total Coronary Heart Disease Events, n/total (%) (CR1 hCV25598594, 1 Rare Allele, n/total 11/72): (15.3%)
- Fatal/Non-fatal Atherosclerotic CV Disease, n/total (%) (CR1 hCV25598594, 1 Rare Allele, n/total 15/72): (20.8%)
- Hosp. for Cardiovascular Disease, n/total (%) (CR1 hCV25598594, 1 Rare Allele, n/total 23/72): (31.9%)
- Total Cardiovascular Disease Events, n/total (%) (CR1 hCV25598594, 1 Rare Allele, n/total 24/72): (33.3%)
- Coronary Artery Bypass or Revascularization, n/total (%) [1]: (0.0%)
- Fatal CHD/Definite Non-fatal MI, n/total (%) [1]: (0.0%)
- Fatal/Non-fatal Atherosclerotic CV Disease, n/total (%) [1]: (0.0%)
- Hosp. for Cardiovascular Disease, n/total (%) [1]: (0.0%)
- Hosp. for Unstable Angina, n/total (%) [1]: (0.0%)
- Non-fatal MI (def & prob), n/total (%) [1]: (0.0%)
- Total Cardiovascular Disease Events, n/total (%) [1]: (0.0%)
- Total Coronary Heart Disease Events, n/total (%) [1]: (0.0%)
- Prava vs. Placebo Odds Ratio, 0 Rare Alleles [2]: 0.74
- Prava vs. Placebo Odds Ratio, 1 Rare Alleles [2]: 0.23
- Prava vs. Placebo Odds Ratio, 0 Rare Alleles [3]: 0.76
- Prava vs. Placebo Odds Ratio, 1 Rare Alleles [3]: 0.06
- Prava vs. Placebo Odds Ratio, 0 Rare Alleles [4]: 0.81
- Prava vs. Placebo Odds Ratio, 1 Rare Alleles [4]: 0.25
- Prava vs. Placebo Odds Ratio, 0 Rare Alleles [5]: 0.79
- Prava vs. Placebo Odds Ratio, 1 Rare Alleles [5]: 0.33
- Prava vs. Placebo Odds Ratio, 0 Rare Alleles [6]: 0.87
- Prava vs. Placebo Odds Ratio, 1 Rare Alleles [6]: 0.31
- Prava vs. Placebo Odds Ratio, 0 Rare Alleles [7]: 0.74
- Prava vs. Placebo Odds Ratio, 1 Rare Alleles [7]: 0.12
- Prava vs. Placebo Odds Ratio, 0 Rare Alleles [8]: 0.78
- Prava vs. Placebo Odds Ratio, 1 Rare Alleles [8]: 0.33
- Prava vs. Placebo Odds Ratio, 0 Rare Alleles [9]: 0.81
- Prava vs. Placebo Odds Ratio, 1 Rare Alleles [9]: 0.22
- Cardiovascular Mortality, n/total (%) [10]: (2.6%)
- Fatal Atherosclerotic Cardiovascular Disease, n/total (%) [10]: (2.6%)
- Fatal/Non-fatal MI (def & prob), n/total (%) (CXCL16 hCV8718197, 0 Rare Alleles, n/total 33/468): (7.1%)
- Fatal CHD/Definite Non-fatal MI, n/total (%) (CXCL16 hCV8718197, 0 Rare Alleles, n/total 36/468): (7.7%)
- Coronary Artery Bypass or Revascularization, n/total (%) (CXCL16 hCV8718197, 0 Rare Alleles, n/total 56/468): (12.0%)
- Total Coronary Heart Disease Events, n/total (%) (CXCL16 hCV8718197, 0 Rare Alleles, n/total 125/468): (26.7%)
- Hosp. for Cardiovascular Disease, n/total (%) (CXCL16 hCV8718197, 0 Rare Alleles, n/total 177/468): (37.8%)
- Total Cardiovascular Disease Events, n/total (%) (CXCL16 hCV8718197, 0 Rare Alleles, n/total 180/468): (38.5%)
- Fatal Atherosclerotic Cardiovascular Disease, n/total (%) (CXCL16 hCV8718197, 1 Rare Allele, n/total 23/742): (3.1%)
- Cardiovascular Mortality, n/total (%) (CXCL16 hCV8718197, 1 Rare Allele, n/total 24/742): (3.2%)
- Fatal CHD/Definite Non-fatal MI, n/total (%) (CXCL16 hCV8718197, 1 Rare Allele, n/total 68/742): (9.2%)
- Fatal/Non-fatal MI (def & prob), n/total (%) (CXCL16 hCV8718197, 1 Rare Allele, n/total 75/742): (10.1%)
- Coronary Artery Bypass or Revascularization, n/total (%) (CXCL16 hCV8718197, 1 Rare Allele, n/total 119/742): (16.0%)
- Total Coronary Heart Disease Events, n/total (%) (CXCL16 hCV8718197, 1 Rare Allele, n/total 220/742): (29.6%)
- Hosp. for Cardiovascular Disease, n/total (%) (CXCL16 hCV8718197, 1 Rare Allele, n/total 305/742): (41.1%)
- Total Cardiovascular Disease Events, n/total (%) (CXCL16 hCV8718197, 1 Rare Allele, n/total 314/742): (42.3%)
- Cardiovascular Mortality, n/total (%) (CXCL16 hCV8718197, 2 Rare Alleles, n/total 19/292): (6.5%)
